Publication PMC7021728, “Structure of the agonist 12–HHT in its BLT2 receptor-bound state” (Scientific Reports, 2020)
Changes are numbered by the printed parent chain.

Experiments:
Experiment in all cases: Gi protein activation catalyzed by BLT2 mutant
Format in all cases: biochemical
[1] = molecular target: T1, BLT2 E185^5.42A (Homo sapiens, UniProt Q9NPC1, E185A)
T1 construct: made in house
T1 sequence (Q9NPC1 1-358 E185A): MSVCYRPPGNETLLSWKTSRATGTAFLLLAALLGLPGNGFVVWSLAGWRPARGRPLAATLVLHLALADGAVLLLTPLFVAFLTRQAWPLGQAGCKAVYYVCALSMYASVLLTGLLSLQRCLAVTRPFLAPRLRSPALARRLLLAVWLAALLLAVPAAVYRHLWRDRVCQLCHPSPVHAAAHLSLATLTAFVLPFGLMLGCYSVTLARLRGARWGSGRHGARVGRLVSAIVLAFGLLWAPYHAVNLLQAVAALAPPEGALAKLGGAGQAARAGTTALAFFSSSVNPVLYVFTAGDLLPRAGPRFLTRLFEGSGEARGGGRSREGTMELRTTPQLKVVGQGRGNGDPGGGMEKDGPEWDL
Description: (§1) All mutations were introduced in the wild-type BLT2 receptor by PCR-mediated mutagenesis using the QuickChange multisite-directed mutagenesis kit (Stratagene) and the wild-type BLT2 construct as a template. Mutations were confirmed by nucleotide sequencing. […] Gαi2 and Gβ1γ2 were prepared as previously described. […] The data were normalized to the fluorescence maximum obtained in the presence of saturating concentrations in 12–HHT (10 μM).

[2] = molecular target: T2, BLT2 H177^ECL2A (Homo sapiens, UniProt Q9NPC1, H177A)
T2 construct: made in house
T2 sequence (Q9NPC1 1-358 H177A): T1 sequence (Q9NPC1 1-358 E185A) with H177A, A185E
Description: as §1

[3] = molecular target: T3, BLT2 P175^ECL2A (Homo sapiens, UniProt Q9NPC1, P175A)
T3 construct: made in house
T3 sequence (Q9NPC1 1-358 P175A): T1 sequence (Q9NPC1 1-358 E185A) with P175A, A185E
Description: as §1

[4] = molecular target: T4, BLT2 Q267^7.32A (Homo sapiens, UniProt Q9NPC1, Q267A)
T4 construct: made in house
T4 sequence (Q9NPC1 1-358 Q267A): T1 sequence (Q9NPC1 1-358 E185A) with A185E, Q267A
Description: as §1

[5] = molecular target: T5, BLT2 R160^4.64A (Homo sapiens, UniProt Q9NPC1, R160A)
T5 construct: made in house
T5 sequence (Q9NPC1 1-358 R160A): T1 sequence (Q9NPC1 1-358 E185A) with R160A, A185E
Description: as §1

[6] = molecular target: T6, BLT2 T274^7.39A (Homo sapiens, UniProt Q9NPC1, T274A)
T6 construct: made in house
T6 sequence (Q9NPC1 1-358 T274A): T1 sequence (Q9NPC1 1-358 E185A) with A185E, T274A
Description: as §1

## CCCCC[C@H](O)/C=C/C=C/C/C=C\CCCC(=O)O [12–HHT, 12S–hydroxyheptadeca-5Z,8E,10E-trienoic acid]
[1]; E185A compared to wild-type, in words
  effect of the mutation on ligand binding: did not significantly affect
[1]; construct E185^5.42A
  EC50: 70.7 nM
[2]; H177^ECL2 to alanine compared to wild-type, in words
  effect of the mutation on ligand binding: do not display a significant impact on ligand binding
[2]; construct H177^ECL2A
  EC50: 24.3 nM
[3]; P175^ECL2 to alanine compared to wild-type, in words
  effect of the mutation on ligand binding: do not display a significant impact on ligand binding
[3]; construct P175^ECL2A
  EC50: 38.9 nM
[4]; Q267^7.32A compared to wild-type, in words
  effect of the mutation on ligand binding: no significant change in ligand binding
[4]; construct Q267^7.32A
  EC50: 33.1 nM
[5]; R160^4.64A compared to wild-type, in words
  effect of the mutation on ligand binding: no effect
[5]; construct R160^4.64A
  EC50: 20.5 nM
[6]; T274^7.39A compared to wild-type, in words
  effect of the mutation on ligand binding: do not impact receptor ligand properties
[6]; construct T274^7.39A
  EC50: 27.7 nM
